Test results published in US12685754B2, “Method of fixating and stabilizing nitric oxide metabolites through fermentation of nitrogen-containing natural substance” (priority 2019, dated 2026).
Entries after “also recorded” stand apart in the source; their conditions may differ.

How the values were obtained:
[1] = tested on: mouse with DNFB-induced atopic dermatitis; assay: DNFB-induced atopic dermatitis mouse: visual examination, ear swelling, histopathology; assay type: in vivo, Balb/c mouse; details: histopathological test, H&E, last day of test; control DNFB + DW 843.17 ± 55.22
Experimental: As a test animal, 5-week old male Balb/c mouse was obtained from Samtako (South Korea) and, after acclimatization for 1 week, used for the test. The breeding chamber for test animal has controlled light and darkness cycle with an interval of 12 hours, and temperature was maintained at 23±2° C. and humidity was maintained at 50 to 60%.
Cabbage fermentation extract was used as a test sample of the test, and, specifically, fermented cabbage which has been prepared according to the method of the present invention was frozen at −80° C. and freeze-dried for 5 days (PVTFD10R, Ilshin Lab, Korea). Thus-obtained powder was dissolved in distilled water and used as a test sample. […]
Anti-atopic effect was analyzed based on visual examination, ear swelling, measurement of interferon γ in blood serum, and histopathological examination. […]

[2] = tested on: test animal of diabetes (STZ); assay: Blood markers of diabetes and diabetes complications after 4 weeks of administration (Example 9-4); assay type: in vivo, C57BL/6 mouse; details: 4 weeks once a day, NaNO2 oral, test sample rectal
Experimental: (§1) As a test animal, 4-week-old male C57BL/6 mouse was obtained from Samtako (South Korea) and used. The test animals were acclimated for 1 week under the same breeding chamber condition as Example 5 above. The acclimated C57BL/6 mouse was then intraperitoneally injected once with STZ (streptozotocin; Sigma-Aldrich, USA) solution, which has been prepared at concentration of 120 mg/kg in 0.1 M citrate buffer (pH 4.5), to induce diabetes. Two weeks after administering STZ, the mouse was fasted for 16 hours and blood was taken from tail vein of the test animal to measure fasting blood glucose using a simple blood glucose meter (Glucotrend, Roche, Germany). […] Body weight, feed intake amount, and blood glucose level were measured twice a week. After one week, blood glucose level was measured again and test animals which maintained fasting blood glucose of not less than 200 mg/dL were selected and used for the test.
(§2) In this example, fermented liquid obtained by fermenting Korean garlic was used for the test after concentration. Content of the nitric oxide metabolites in garlic fermentation concentrate which has been obtained after concentration was adjusted such that it is 200 ppm or higher in terms of NO2^−. It is preferable that the concentration step is carried out for 24 hours to 48 hours at temperature of 20° C. to 30° C. and stirring speed of 100 rpm to 300 rpm.
To the test animal of diabetes prepared in Example 6, NaNO2 was administered orally once a day for 4 weeks or the test sample (garlic fermentation concentrate obtained by concentration) was administered rectally also once a day for 4 weeks. On the last day of test, blood was collected from all test animals to complete the test. After that, content of blood glucose, glycated hemoglobin, insulin, creatinine, and urea nitrogen in the collected blood were measured by using a diagnostic kit. Specifically, the blood glucose, glycated hemoglobin, and insulin of Table 3 were used for determining and analyzing the anti-diabetes effect, while creatinine and urea nitrogen of Table 3 were used for determining and analyzing the effect of alleviating the symptoms of diabetes complications. A decrease in kidney function is one of the diabetes complications, and creatinine and urea nitrogen are a clinical biomarker for measuring the kidney function.

[3] = Release of nitric oxide at reducing condition mimicking the intestinal condition of human body; assay type: physicochemical; details: vitamin C and sodium chloride in phosphate buffer solution
Experimental: (§3) To figure the optimum fermentation condition allowing fixating and stabilization of the nitric oxide metabolites at the highest level, production amount of nitric oxide metabolites was examined depending on various fermentation temperatures, dissolved oxygen concentrations (level), and chemical oxygen demands. For measuring the nitric oxide metabolites, amount of nitric oxide was measured under acidic condition and also reducing condition using a chemical method and calculation was made for the nitric oxide metabolites. As for the acidic condition, a condition mimicking human stomach was created using hydrochloride (HCl) solution with sodium chloride (NaCl) and potassium chloride (KCl), and then nitric oxide metabolites were released in the solution. […] Thereafter, by using a nitric oxide detector (Sievers Nitric Oxide Analyzer 280i), amount of the nitric oxide metabolites fixated in fermented substance was measured.
(§4) As a test material, a fermented substance using garlic, cabbage, onion, bean sprouts, lettuce, soybean, or cricket, and sodium nitrite were used. […] As a result, from all samples other than sodium nitrite (residual nitrite ion concentration of 5 mg/L), nitrite ion was not detected.

[4] = tested on: rat injected with DOCA (high blood pressure); assay: Blood pressure-lowering effect in test animal of high blood pressure (Example 9-2); assay type: in vivo, Sprague Dawley (SD) rat; details: 15-120 minutes; NaNO2 oral 18.6 mg/kg, test sample rectal 12.5 mg/kg as NO2-; once a day for 4 weeks
Experimental: The acclimated SD rat (8-week-old) was intraperitoneally injected with DOCA (deoxycorticosterone acetate; […] To determine an occurrence of high blood pressure, blood pressure was measured by using tail-cuff plethysmography (Muromachi Kikai, Japan), and animals with systolic blood pressure of at least 140 mmHg were selected and used for the test. When various plants rich in polyphenol are used, it is possible to obtain fermentation liquid containing both nitric oxide metabolites and polyphenol. In this example, fermented liquid obtained by fermenting Korean garlic was used for the test after concentration. Content of the nitric oxide metabolites in garlic fermentation concentrate which has been obtained after concentration was adjusted such that it is 200 ppm or higher in terms of NO2^−. It is preferable that the concentration step is carried out for 24 hours to 48 hours at temperature of 20° C. to 30° C. and stirring speed of 100 rpm to 300 rpm.

[5] = samples collected after measurement at acidic or reduction condition
Experimental: as §4

[6] = tested on: mouse injected with STZ (diabetes); assay: Oral glucose tolerance test for test animal of diabetes (Example 9-3); assay type: in vivo, C57BL/6 mouse; details: glucose 2 g/kg; 15-120 minutes; NaNO2 oral 18.6 mg/kg, test sample rectal 12.5 mg/kg; once a day for 4 weeks
Experimental: as §1, §2

[7] = Release of nitric oxide at acidic condition like artificial stomach; assay type: physicochemical; details: HCl solution with NaCl and KCl; Sievers Nitric Oxide Analyzer 280i
Experimental: as §3, §4

## nitrite [DNFB + N]
[1]
  Ear thickness: 463.67 ± 77.08 μm

## citrate [DNFB + CA]
[1]
  Ear thickness: 593.17 ± 71.27 μm

## O=N[O-].[Na+] [NaNO2, sodium nitrite]
[2]; control group 0.25 ± 0.05
  Creatinine: 0.18 ± 0.03 mg/dL
[2]; control group 7.5 ± 0.3
  Glycated hemoglobin: 6.2 ± 0.3%
[2]; control group 43.2 ± 0.8
  Urea nitrogen: 37.1 ± 0.5 mg/dL
[2]; control group 80.0 ± 10.7
  Insulin: 150.0 ± 9.5 ng/mL
[2]; control group 480.0 ± 6.0, normal 106.0 ± 5.0
  Fasting blood glucose: 320.0 ± 11.0 mg/dL
[3]
  release amount of nitric oxide at reducing condition mimicking the intestinal condition of human body: 488.4 mg/L
[4]
  change in blood pressure over time: rapid decrease in blood pressure; also recorded: after the sharp decrease in initial blood pressure, the blood pressure has dramatically increased again
[5]
  residual nitrite ion concentration: 5 mg/L
[6]
  blood glucose level in OGTT: rapid decrease in blood glucose level; also recorded: no further decrease in the blood glucose level
[7]
  release amount of nitric oxide at acidic condition like artificial stomach: 130.7 mg/L
